Reference: article doi:10.1101/2022.12.23.521429v4, “Structural perspective on the design of selective DYRK1B inhibitors” (biorxiv, 2025)

Experiments:
[1] = target: T1, DYRK1A kinase domain (126-490) (Homo sapiens, UniProt Q13627); experiment: kinase activity assay; format: biochemical; conditions: co-substrate and buffer of the KM determination not told
T1 construct: also printed 124-490 in b15 and 126-489), non-cleavable C-terminal His-tag kept; E. coli LOBSTR; Tyr321 phosphorylated; b63 prints Q9Y463 (swapped with DYRK1B)

[2] = target: T2, DYRK1B kinase domain (78-442) (Homo sapiens, UniProt Q9Y463); experiment: Sypro Orange thermal shift assay; format: binding; conditions: read-out: shift in Tm
T2 construct: kinase domain 78-442, C-terminal TEV site and His-tag (ENLYFQ*GHHHHHH), His-tag cleaved by TEV; E. coli LOBSTR; Tyr273 autophosphorylated

| Km [1] [µM] | Compound | ΔTm at 10 µM [2] [°C] |
| --- | --- | --- |
| 118 | Nc1ncnc2c1ncn2[C@@H]1O[C@H](COP(=O)(O)OP(=O)(O)OP(=O)(O)O)[C@@H](O)[C@H]1O [ATP] |  |
|  | COc1cc(N2CCN(C)CC2)ccc1Nc1nccc(-c2cn(C)c3cnccc23)n1 [AZ191] | 12 |
